Experimental data reported in EP4667486A1, “COMPOSITION COMPRISING CD38 OR FRAGMENT THEREOF FOR TREATING AUTOIMMUNE DISEASES” (DNT Co., Ltd., priority 2023, dated 2024).

Columns and labels:
DCs = experiment: LPS-induced TNF-α secretion from bone marrow-derived dendritic cells (ELISA), sCD38 functional domain screening; format: cell-based, mouse; details: DCs from bone marrow cells treated with GM-CSF, FIG. 1-3
Description: To isolate bone marrow cells, mice (Damool Science, Korea) were anesthetized and sacrificed, and the femur and tibia were removed aseptically and the tissue attached to the bones was removed. After cutting off both ends of the bones, bone marrow was collected by slowly injecting 5-10 mL of a cell culture medium or a solution used for bone marrow separation into the medullary cavity at one end using a syringe needle, which was then filtered through a 70 µm cell strainer (SPL Life Sciences, Korea) and centrifuged to collect bone marrow cells. After treating with 1 mL of an RBC lysis solution (Merck, Germany) for 2-5 minutes to remove red blood cells, 10 mL of Dulbecco's phosphate-buffered saline (DPBS) (GIBCO, USA) was added, and bone marrow cells were collected through centrifugation. After washing the bone marrow cells 3 times with DPBS, 10 mL of a BMDC culture medium (RPMI-1640 (Welgene, Korea) containing 10% FBS (GIBCO, USA) and 10 ng/mL GM-CSF (Peprotech, USA)) was added to disperse the bone marrow cells into single cells. 1×10^5 bone marrow cells were dispensed into a 24-well culture dish and differentiated in a 37 °C incubator maintained at 5% CO2.
To screen the functional domain of sCD38 that induces dendritic cell tolerance, the domain of sCD38 was largely divided into three parts (CD38 amino acid sequence; 42-140 (1), 130-220 (2), 210-304 (3)). Using the three parts of sCD38, TNF-α secretion was observed as one of the indicators of the degree of DC tolerance induction.
An E. coli expression system was used to express the sCD38 domain protein. The sCD38 domain protein expressed in E. coli was purified using a purification system and used for screening. For fast and easy screening of the domain protein of sCD38, an ELISA method that measures the pro-inflammatory cytokine TNF-α was adopted. When the DCs obtained by treating the bone marrow cells with GM-CSF are treated with LPS, the DCs differentiate into mature DCs and the secretion of TNF-α is increased. It was confirmed that TNF-α secretion from DCs induced by LPS was reduced by the treatment with sCD38 (SEQ ID NO: 33). As a result of treating with sCD38 functional domain, (1) 42-140, (2) 130-220, and (3) 210-304, it was confirmed that the TNF-α secretion from dendritic cells induced by LPS (Merck, Germany) was reduced by the sCD38 functional domain (3).
After the first screening of the sCE38 functional domain that induces dendritic cell tolerance, the selected domain was divided into two parts (C-term 226-265 and C-term 266-304 of CD38 210-304 (3), (SEQ ID NO: 26)). After the domain was divided into two parts, TNF-α secretion was observed as one of the indicators of the degree of DC tolerance induction.
An E. coli expression system was used to express the divided two parts of sCD38. As a result of treating with the divided two parts (C-term 226-265, C-term 266-304) of the sCD38 functional domain (3), it was confirmed that the TNF-α secretion from dendritic cells induced by LPS was reduced by the sCD38 functional domain C-term 266-304.
After the second screening of the sCE38 functional domains that induce dendritic cell tolerance, the screened domain was divided into seven parts and peptide synthesis was performed (peptide 1: 233-247 of sCD38 226-304, peptide 2: 251-265, peptide 3: 269-283, peptide 4: 266-304 (SEQ ID NO: 26), peptide 5 (M19): 286-304 (SEQ ID NO: 21), peptide 6 (M16): 287-302 (SEQ ID NO: 11), peptide 7 (M14): 287-300 (SEQ ID NO: 4)). […]

human dendritic cells = experiment: LPS-induced TNF-α secretion from human monocyte-derived dendritic cells; format: cell-based; details: FIG. 9
Description: To isolate human monocytes, 20 mL of whole blood was withdrawn and mix with an equal volume of PBS. After adding 15 mL of Ficoll (GE HealthCare, USA) to a 50-mL tube, 15 mL of diluted whole blood was slowly added onto the Ficoll. Likewise, an equal amount of the remaining whole blood was dispensed slowly into a 50-mL tube containing 15 mL of Ficoll. Centrifugation was performed at 1000 x g for 20 minutes in a centrifuge at room temperature. After carefully removing plasma from the isolated whole blood, a portion including peripheral blood mononuclear cells (PBMCs) was transferred to a new 50-mL tube. After adding 10 mL of PBS to the tube containing PBMCs and mixing gently, centrifugation was performed at 400 x g for 10 minutes at room temperature. After carefully removing the supernatant, 1 mL of an RPMI 1640 medium containing 10% FBS was added to the PBMC pellets, and the cells were counted. After adding an RPMI-1640 medium (Welgene, Korea) containing 10% FBS to 1x10^6 cells per mL, 100 ng/mL GM-CSF (Peprotech, USA) and 50 ng/mL IL-4 (Peprotech, USA) were mixed. After adding 500 µL of PMBC to each well of a 24-well plate, the cells were differentiated in an incubator at 37 °C maintained at 5% CO2 for 5 days.
It was confirmed whether the sCD38 functional domain that induces tolerance of dendritic cells is also effective in human dendritic cells. To identify the functional domain of human sCD38, the C-terminal portion of human CD38 (H18 (283-300), H13 (284-296) (SEQ ID NO: 2)) were prepared into peptides. Human sCD38 and M19 peptides were treated as positive controls, and TNF-α secretion was observed using H18 and H13 peptides as one of the indicators of the degree of DC tolerance induction.
It was confirmed that the TNF-α secretion induced by LPS from human dendritic cells was reduced by the sCD38 functional domain peptides when the human sCD38 and M19 peptides were treated as positive controls and they were treated with the H18 and H13 peptides.

[1] = test system: ulcerative colitis animal model; experiment: DSS-induced animal model of ulcerative colitis, colon length; format: in vivo, C57BL/6 mice; details: for colon length: 20 µg intrarectally daily for 2 weeks, DSS 6-7 days, FIG. 8
Description: A control ulcerative colitis animal model was established by allowing C57BL/6 mice (Damool Science, Korea) to drink drinking water containing 2-3% dextran sulfate sodium (DSS) (MP Biomedicals, China) for 6-7 days. Administration of DSS increases the level of inflammatory cytokines and causes colitis in mice. The experimental animal model was treated with DSS for 6-7 days, and 20 µg of the sCD38 functional domain (M19 peptide (Peptron, Korea)) was injected intrarectally daily for 2 weeks. Then, it was determined whether the progression of ulcerative colitis was reduced. LiCl (Merck, Germany) was used instead of the sCD38 functional domain (M19 peptide) for a positive control group.
In contrast, it was confirmed that the colon length of the experimental animal model treated with the sCD38 functional domain (M19 peptide) was not shortened.

[2] = test system: autoimmune uveitis animal model; experiment: Animal model of autoimmune uveitis (IRBP/PTX-induced), severity; format: in vivo, C57BL/6 mice; details: injected into the eye twice a week, versus uninjected uveitis control; FIG. 4
Description: Autoimmune uveitis was induced by […] retinoid-binding protein (IRBP) (Peptron, Korea) into the hind limb muscles of C57BL/6 mice (Damool Science, Korea) and intraperitoneal injection of pertussis toxin (PTX) (List Lab, USA). After 10 to 14 days, the presence or absence of autoimmune uveitis was confirmed in the eyes of the mice. The functional domain of sCD38 (226-304) was injected into the eye of the animal model that developed autoimmune uveitis twice a week to determine the progression of autoimmune uveitis. An autoimmune uveitis animal model to which the functional domain of sCD38 (226-304) was not injected was used as a control group, and animals to which the functional domain of sCD38 (226-304) was injected were used as a test group. The severity of autoimmune uveitis was measured for the experimental animals.

[3] = test system: animal model of rheumatoid arthritis; experiment: Collagen-induced arthritis (CIA) animal model of rheumatoid arthritis, hind ankle thickness; format: in vivo, DBA/1 mice; details: summary statement referring to Example 8
Description: For induction of collagen-induced arthritis (CIA), 8-9 week-old male DBA/1 mice (Central Lab. Animal, Korea) were immunized with bovine type II collagen (CII) (Central Lab. Animal, Korea). CII was dissolved in 0.05 N acetic acid at a concentration of 2 mg/mL and emulsified at a ratio of 1:1 with complete Freund's adjuvant (CFA) (Central Lab. Animal, Korea) at 4 °C. For the first immunization, 150 µL of a mixture of 100 µg CII and 100 µg CFA was injected intradermally into the tail of the mice. Three weeks later, before booster injection, the sCD38 functional domain (sCD38-3) (226-304) or saline was injected into the ankle joint of the mice, and an equal volume of CII, emulsified at a ratio of 1:1 with incomplete Freund's adjuvant (IFA) (Merck, Germany), was injected into the tail (booster injection). The sCD38 functional domain (sCD38-3) was injected three more times, once a week. After 4 weeks of the booster injection, the mice were euthanized for analysis. After the booster injection, the thickness of the hind ankle of the animal model was measured using a vernier caliper.

| Sequence | TNF-α secretion from dendritic cells induced by LPS (DCs) | TNF-α secretion induced by LPS from human dendritic cells (human dendritic cells) | further results |
| --- | --- | --- | --- |
| ARFLQCVKNPEHPSCRLNT (REGION 1..19: note = 19 mer (Mouse)) [M19, synthesized peptide 286-304 of mouse sCD38] | reduced | reduced | colon length [1]: prevents shortening of the colon; colon length ([1]; listed as M19 peptide): not shortened; progression of ulcerative colitis ([1]; summary statement referring to Example 9): reduces |
| FLQCVKNPEDSSC (REGION 1..13: note = 13 mer (Human or Chimpaanze)) [H13, peptide 284-296 of human CD38] |  | reduces |  |
| KFLQCVKNPEDSSCTSEI (REGION 1..18: note = 18 mer (Human or Chimpaanze)) [H18, domain peptide 283-300 of human CD38] | reduced | reduces |  |
| LKMIVQKRNMIFACVDNYRPARFLQCVKNPEHPSCRLNT (REGION 1..39: note = 39 mer (Mouse)) [peptide 4, synthesized peptide 266-304 of mouse sCD38] | reduced |  | progression of autoimmune uveitis [2]: reduces; rheumatoid arthritis [3]: reduces |
| RFLQCVKNPEHPSC (REGION 1..14: note = 14 mer (Mouse, Rat or Horse)) [M14, synthesized peptide 287-300 of mouse sCD38] | reduces |  |  |
| RFLQCVKNPEHPSCRL (REGION 1..16: note = 16 mer (Mouse)) [M16, synthesized peptide 287-302 of mouse sCD38] | reduces |  |  |
